# Measurements taken from ChEMBL document CHEMBL5375978, “Harnessing the Reactivity of Duclauxin toward Obtaining hPTP1B1-400 Inhibitors” (J Med Chem, 2023).
# Calls of active or inactive are those of the source. The rule behind the calls is not given here.
# Experiments:
# [1] = Acute toxicity in Swiss Webster mouse assessed as loss of motor activity at 30 to 300 mg/kg, po and measured for 2 hrs; assay type: organism-based; settings: in vivo, dose 30-300 mg/kg
# [2] = Acute toxicity in Swiss Webster mouse assessed as animal death at 30 to 300 mg/kg, po and measured for 2 hrs; assay type: organism-based; settings: in vivo, dose 30-300 mg/kg
# [3] = Acute toxicity in Swiss Webster mouse assessed as animal death at 30 to 300 mg/kg, po and measured after 14 days; assay type: organism-based; settings: in vivo, 336 h, dose 30-300 mg/kg, time 14 day
# [4] = target: T1, Tyrosine-protein phosphatase non-receptor type 1 (Homo sapiens, UniProt P18031); assay: Inhibition of wild type N-terminal 6 his tagged human PTP1B (1 to 400 residues) expressed in Escherichia coli (Rosetta, DE3) using p-NPP as substrate preincubated for 10 mins followed by substrate addition and measured after 20 mins by absorbance based analysis
# T1 sequence (P18031 whole entry): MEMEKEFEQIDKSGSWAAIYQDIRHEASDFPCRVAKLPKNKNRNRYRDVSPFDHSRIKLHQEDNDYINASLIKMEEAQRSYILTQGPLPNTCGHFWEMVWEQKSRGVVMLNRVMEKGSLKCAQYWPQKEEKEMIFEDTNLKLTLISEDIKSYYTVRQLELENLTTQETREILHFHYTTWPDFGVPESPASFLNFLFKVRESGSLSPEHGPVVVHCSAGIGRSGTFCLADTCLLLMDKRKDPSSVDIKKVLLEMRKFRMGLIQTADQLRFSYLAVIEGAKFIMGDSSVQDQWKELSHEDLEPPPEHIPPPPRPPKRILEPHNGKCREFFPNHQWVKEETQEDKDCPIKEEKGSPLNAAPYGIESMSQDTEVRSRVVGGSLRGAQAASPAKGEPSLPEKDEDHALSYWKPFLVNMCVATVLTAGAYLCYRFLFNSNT
# [5] = Acute toxicity in Swiss Webster mouse assessed as ataxia at 30 to 300 mg/kg, po and measured for 2 hrs; assay type: organism-based; settings: in vivo, dose 30-300 mg/kg
# [6] = species: Mus musculus; assay: Hypoglycemic activity in Swiss Webster mouse assessed as reduction in blood glucose level preincubated for 30 mins followed by insulin dose and measured at upto 120 mins by insulin tolerance test; assay type: functional, organism-based; settings: time <= 150.0 min
# [7] = target: T2, Tyrosine-protein phosphatase non-receptor type 1 (Homo sapiens) (UniProt P18031); assay: Binding affinity to wild type N-terminal 6 his tagged human PTP1B (1 to 400 residues) expressed in Escherichia coli (Rosetta, DE3) assessed as affinity constant by fluorescence based analysis
# T2 sequence (whole entry): T1 sequence (P18031 whole entry)
# [8] = Acute toxicity in Swiss Webster mouse assessed as hyperactivity at 30 to 300 mg/kg, po and measured for 2 hrs; assay type: organism-based; settings: in vivo, dose 30-300 mg/kg
# [9] = system: Mus musculus; assay: Hypoglycemic activity in Swiss Webster mouse assessed as reduction in blood glucose level at 3 to 30 mg/kg preincubated for 30 mins followed by insulin dose and measured after 60 to 120 mins by insulin tolerance test; assay type: functional, organism-based; settings: dose 3-30 mg/kg, time 90-150 min
# [10] = Acute toxicity in Swiss Webster mouse assessed as lethal dose; settings: in vivo
# [11] = Acute toxicity in Swiss Webster mouse assessed as change in heart rate at 30 to 300 mg/kg, po and measured for 2 hrs; assay type: organism-based; settings: in vivo, dose 30-300 mg/kg
# [12] = Acute toxicity in Swiss Webster mouse assessed as sedation at 30 to 300 mg/kg, po and measured for 2 hrs; assay type: organism-based; settings: in vivo, dose 30-300 mg/kg
# [13] = Acute toxicity in Swiss Webster mouse assessed as macroscopic damage in internal organs at 30 to 300 mg/kg, po and measured after 14 days; assay type: organism-based; settings: in vivo, 336 h, dose 30-300 mg/kg, time 14 day
# [14] = Acute toxicity in Swiss Webster mouse assessed as effect on body weight loss at 30 to 300 mg/kg, po and measured after 14 days; assay type: organism-based; settings: in vivo, 336 h, dose 30-300 mg/kg, time 14 day
# [15] = Acute toxicity in Swiss Webster mouse assessed as sedation at 10 to 500 mg/kg, po and measured for 2 hrs; assay type: organism-based; settings: in vivo, dose 10-500 mg/kg
# [16] = Acute toxicity in Swiss Webster mouse assessed as loss of motor activity at 10 to 500 mg/kg, po and measured for 2 hrs; assay type: organism-based; settings: in vivo, dose 10-500 mg/kg
# [17] = Acute toxicity in Swiss Webster mouse assessed as ataxia at 10 to 500 mg/kg, po and measured for 2 hrs; assay type: organism-based; settings: in vivo, dose 10-500 mg/kg
# [18] = Acute toxicity in Swiss Webster mouse assessed as animal death at 10 to 500 mg/kg, po and measured for 2 hrs; assay type: organism-based; settings: in vivo, dose 10-500 mg/kg
# [19] = Acute toxicity in Swiss Webster mouse assessed as effect on body weight loss at 10 to 500 mg/kg, po and measured after 14 days; assay type: organism-based; settings: in vivo, 336 h, dose 10-500 mg/kg, time 14 day
# [20] = Acute toxicity in Swiss Webster mouse assessed as change in heart rate at 10 to 500 mg/kg, po and measured for 2 hrs; assay type: organism-based; settings: in vivo, dose 10-500 mg/kg
# [21] = Acute toxicity in Swiss Webster mouse assessed as macroscopic damage in internal organs at 10 to 500 mg/kg, po and measured after 14 days; assay type: organism-based; settings: in vivo, 336 h, dose 10-500 mg/kg, time 14 day
# [22] = Acute toxicity in Swiss Webster mouse assessed as hyperactivity at 10 to 500 mg/kg, po and measured for 2 hrs; assay type: organism-based; settings: in vivo, dose 10-500 mg/kg
# [23] = Acute toxicity in Swiss Webster mouse assessed as animal death at 10 to 500 mg/kg, po and measured after 14 days; assay type: organism-based; settings: in vivo, 336 h, dose 10-500 mg/kg, time 14 day
compound,measurement,setting,value
CC(=O)O[C@H]1[C@@H]2C(=O)c3c(C)cc(O)c4c3[C@@]1(COC4=O)C1=C2c2c(C)cc(O)c3c(=O)n(-c4ccc([N+](=O)[O-])cc4)cc(c23)C1=O,Activity,[1],Non-Toxic
same,Activity,[2],Non-Toxic
same,Activity,[3],Non-Toxic
same,IC50,[4],3.1 µM
same,Activity,[5],Non-Toxic
same,Activity,[6],Dose-Dependent Effect
same,Ka,[7],2.9 10^5/M
same,Activity,[8],Non-Toxic
same,Activity,[9],Active
same,LD50,[10],300 mg/kg
same,Activity,[11],Non-Toxic
same,Activity,[12],Non-Toxic
same,Activity,[13],Non-Toxic
same,Activity,[14],Non-Toxic
CO[C@@]12c3c(C)cc(O)c4c(=O)occ(c34)C(=O)[C@@H]1[C@]13COC(=O)c4c(O)cc(C)c(c41)C(=O)[C@H]2[C@@H]3OC(C)=O,Activity,[15],Non-Toxic
same,Activity,[16],Non-Toxic
same,IC50,[4],35.6 µM
same,Activity,[17],Non-Toxic
same,Activity,[18],Non-Toxic
same,Ka,[7],2 10^5/M
same,Activity,[19],Non-Toxic
same,Activity,[20],Non-Toxic
same,LD50,[10],500 mg/kg
same,Activity,[21],Non-Toxic
same,Activity,[22],Non-Toxic
same,Activity,[23],Non-Toxic
